Data taken from patent publication US20150290192A1, “INHIBITORS OF BRUTON'S TYROSINE KINASE” (HOFFMANN-LA ROCHE INC., priority 2012, published 2015).
Like-named read-outs stand apart in the source and are kept apart here. Marks after values point to notes of the source that are not given here.

Tests used:
[1] = test system: human B cells (BCR activation); assay: Human B cell antibody production after BCR activation; format: cell-based; settings: for IC50: Homo sapiens, B-cell, N = 3 donors
Description: Human total B cells were enriched with RosetteSep human B cell enrichment cocktail (#28921, Vancouver, BC) from buffy coat leukocyte packs (New York Blood Center) following manufacturer's protocol. Enriched B cell purity (around 80%) was checked by FACS with CD19+ staining. B cells were suspended (0.1 million cells/well/100 μl) in RPMI-1640 based conditional medium (50 ng/ml IL-2, 50 ng/ml IL-10, and […] anti-IgD for the activation of B cells to produce IgG/IgM; 10 ng/ml IL-4, 10 ng/ml IL-10, 25 ng/ml IL-21, and […] anti-CD40 for the activation of B cells to produce IgE) together with Compound 1 (1 nM-10 μM). Cells were cultured for 10 days (for IgG/IgM production) or 14 days (for IgE production) at 37° C. Culture supernatants were collected for IgM, IgG, and IgE analysis following Bethyl Laboratory's protocol (#E80-104, #E80-100, #E80-108, Montgomery, Tex.).

[2] = test system: OVA sensitized and challenged mice, airway eosinophilia; assay: Ovalbumin-induced allergic airway disease: allergen-induced airway eosinophilia; format: in vivo, mouse; settings: for % reduction in airway eosinophilia: Inhaled, mOVA40
Description: The mouse model of ovalbumin-induced allergic airway disease was employed to assess the effects of Compound 1 on allergen-induced bronchoconstriction and allergen-induced airway inflammation. Briefly, mice (male; BALB/c; 7-9 weeks of age) were immunized i.p. with […] of ovalbumin (OVA) in 0.2 ml of Alum (2% Al(OH)3 in water, Serva, Heidelberg, Germany) on days 0 and 14. Control animals received Alum only. On days 21-23, animals were exposed for 20 min to a nebulized (Proneb Ultra II, PARI Respiratory Equipment, Midlothian, Va.,) aerosol of 1% OVA (10 mg/ml) in phosphate-buffered saline (PBS), to establish the inflammatory process within the lung; or PBS alone as a control. For studies where intranasal dosing was used, mice were anesthetized with isoflurane and intranasally (i.n.) administered vehicle (20% propylene glycol) or Compound 1 (0.3 mg/kg) one hour prior to each aerosolized OVA challenge.
For studies using inhalation delivery, Compound 1 was micronized by a jet mill (MC One Jet Mill, Jetpharma USA Inc., South Plainfield, N.J.) and the dry powder aerosol was generated using a Wright dust feed dry powder aerosol generator. The micronized drug powder was packed into a cylindrical reservoir using a hydraulic press at approximately 1000 psi to produce compacted cakes of powder used as input by the Wright dust feed. The dust feed creates and aerosol that is passed through a sonic nozzle for de-agglomeration and into a cyclone to remove non-respirable particles and agglomerates. The cyclone output passed into the TSE nose-only rodent exposure system. Dose groups of mice were exposed to the aerosol test atmosphere for 5, 15, or 45 minutes. […] The particle size distribution for each exposure was evaluated by collecting aerosol samples with an eight stage cascade impactor. […] Impactor data were mathematically evaluated to determine the Mass Median Aerodynamic Diameter (MMAD) and Geometric Standard Deviation (GSD) of 6-tert-Butyl-2-[2-hydroxymethyl-3-(5-{5-[(2-methoxy-ethylamino)-methyl]-pyridin-2-ylamino}-1-methyl-6-oxo-1,6-dihydro-pyridin-3-yl)-phenyl]-3,4-dihydro-2H-isoquinolin-1-one using graphical analysis of an assumed lognormal distribution. The estimated deposited dose of Compound 1 was calculated using a minute volume for the mouse of 0.026 liters per minute and the pulmonary deposition fraction was determined from the MMAD. […]
To study the effects of Compound 1 on airway inflammation, after the three 1% OVA challenges, a final OVA challenge was given as an aerosol solution of 5% OVA in PBS (50 mg/ml) or PBS alone for 20 min. […] The lungs were lavaged and airway inflammation was evaluated as previously described by performing total and differential cell counts [Harris et al., 2012, Mucosal Immunology]. […]

[3] = Micronization: particle size and polymorphic form; format: physicochemical
Description: 10.6 g of compound 1 was micronized in a Jet-O-Mizer jet mill at feed and grinding pressures of 90 psi. The micronized material thus obtained was analyzed by powder X-ray diffraction pattern and particle size distribution as shown in FIGS. 1 and 2 respectively. No change in polymorphic form was observed during the micronization process. Eighty percent of the particles were of size 5 μm or less with a mean particle size (d50%=2.88 μm) in the range suitable for inhalation delivery. The material was used for the in vivo experiment mOVA36.
8.6 g of 2-(6-tert-butyl-8-fluoro-1-oxophthalazin-2(1H)-yl)-4-(1-methyl-5-(5-(1-methylpiperidin-4-yl)pyridin-2-ylamino)-6-oxo-1,6-dihydropyridazin-3-yl)nicotinaldehyde was micronized in a Jet-O-Mizer jet mill at 80 psi. The mean particle size (d50%) was 3.05 μm with 90% particles ≦6 μm (FIG. 3). This material (30% w/w) and lactose (Lactohale LH 300, 70% w/w) were mixed in a Turbula mixer at 22 rpm for 15 minutes. The d50% and d90% particle size of the lactose ingredient were <5 μm and <10 μm, respectively (DFE Pharma specifications (#001/October 2011). The blend thus obtained was used for the in vivo experiment mOVA40, mPolylC-3-12 and mPolylC-5-12. See FIG. 3.

[4] = test system: OVA sensitized and challenged mice, allergen-induced bronchoconstriction; assay: Ovalbumin-induced allergic airway disease: allergen-induced bronchoconstriction

Compound `CN1CCC(c2ccc(Nc3cc(-c4ccnc(-n5ncc6cc(C(C)(C)C)cc(F)c6c5=O)c4CO)nn(C)c3=O)nc2)CC1` [Compound 1, 6-tert-Butyl-8-fluoro-2-{3-hydroxymethyl-4-[1-methyl-5-(1′-methyl-1′,2′,3′,4′,5′,6′-hexahydro-[3,4′]bipyridinyl-6-ylamino)-6-oxo-1,6-dihydro-pyridazin-3-yl]-pyridin-2-yl}-2H-phthalazin-1-one] has an IC50 ([1]; 240 h, 10 days culture, read-out: IC50 IgG production) of 4.15 nM, an IC50 ([1]; 240 h, 10 days culture, read-out: IC50 IgM production) of 1.21 nM and an IC50 ([1]; 336 h, 14 days culture, read-out: IC50 IgE production) of 1.47 nM. For the same compound, the “reduction of levels of IgM, IgG, and IgE in the supernatant, efficacy” value ([1]; concentration dependent) was “up to 100%”, the “% reduction in airway eosinophilia” value ([2]; delivered dose 0.09 mg/kg, deposited dose .003 mg/kg) was 82* % and the “% reduction in airway eosinophilia” value ([2]; delivered dose 0.27 mg/kg, deposited dose .010 mg/kg) was 83* %. The “% reduction in airway eosinophilia” value ([2]; delivered dose 0.81 mg/kg, deposited dose .030 mg/kg) was 84* %, the “OVA-induced increase in the numbers of eosinophils recovered in the lavage fluid” value ([2]; dry powder formulation by inhalation) was “effectively inhibited” and the “particle size of 90% particles” value ([3]; micronized at 80 psi, material for mOVA40 and mPolyIC) was ≤ 6 μm. For the same compound, the “particles of size 5 μm or less” value ([3]; micronized at 90 psi, material for mOVA36) was “Eighty”, the “mean particle size (d50%)” value ([3]; micronized in Jet-O-Mizer jet mill at 80 psi, material for mOVA40 and mPolyIC) was 3.05 μm and the “mean particle size (d50%)” value ([3]; micronized in Jet-O-Mizer jet mill at 90 psi, material for mOVA36) was 2.88 μm. The “change in polymorphic form during the micronization process” value ([3]; powder X-ray diffraction before and after micronization) was “No change”, the “% reduction in airway resistance (R)” value ([4]; Inhaled, delivered dose 1.0 mg/kg, deposited dose 0.03 mg/kg, mOVA36) was 44% and the “% reduction in airway resistance (R)” value ([4]; Inhaled, delivered dose 2.7 mg/kg, deposited dose 0.1 mg/kg, mOVA36) was 59* %. For the same compound, the “% reduction in airway resistance (R)” value ([4]; Inhaled, delivered dose 8.6 mg/kg, deposited dose 0.3 mg/kg, mOVA36) was 86* %, the “% reduction in airway resistance (R)” value ([4]; Intranasal, delivered dose 0.3 mg/kg, deposited dose 0.3 mg/kg) was 85* % and the “OVA-induced increase in R” value ([4]; administered i.n. or delivered as a dry powder formulation by inhalation) was “effectively inhibited”.
